In ChEMBL document CHEMBL4376824, “Anti-Lymphangiogenic Alkaloids from the Zoanthid Zoanthus vietnamensis Collected in Taiwan” (J Nat Prod, 2019):
The source made the active and inactive calls. The calls are words filed in the database; no cut-off is given here.

Assays:
[1] = Anti-lymphangiogenic activity in HDLEC assessed as cell growth at 50 ug/ml incubated for 48 hrs by SRB staining based assay relative to control; type: functional; details: Homo sapiens, read-out: Activity
Homo sapiens = species: Homo sapiens; test: Anti-lymphangiogenic activity in HDLEC assessed as reduction in tube formation at 50 ug/ml incubated for 8 hrs by matrigel tube formation based inverted phase contrast microscopic analysis; type: functional
[2] = Anti-lymphangiogenic activity in HDLEC assessed as reduction in tube formation incubated for 8 hrs by matrigel tube formation based inverted phase contrast microscopic analysis; type: functional, Homo sapiens
[3] = Cytotoxicity against HDLEC at 50 ug/ml incubated for 24 hrs by LDH assay; details: human
[4] = Anti-lymphangiogenic activity in HDLEC assessed as cell growth at 10 ug/ml incubated for 48 hrs by SRB staining based assay relative to control; type: functional; details: Homo sapiens, read-out: Activity

SMILES	growth at 50 µg/mL [1]	further results
C[C@H]1C[C@@H]2CN3[C@H]4C(=O)[C@@]56CO[C@]7(C)CC(=O)[C@@H]([C@H]5C7)[C@@H](C)C(=O)[C@@H]6[C@@]5(COC(=O)C5)[C@]4(C)CC[C@@]3(C1)O2	86%	–
COC(=O)CNCC1=CC(=O)[C@@H]2[C@@H](C1)[C@]13CO[C@@]4([C@@H]1O)N1C[C@H]5C[C@H](C)C[C@]1(CC[C@@]4(C)[C@]1(COC(=O)C1)[C@H]3C(=O)[C@@H]2C)O5	76%	–
C[C@H]1C[C@@H]2CN3C4=C[C@@]5(C)[C@@H]6CC(CO)=CC(=O)[C@H]6[C@@H](C)C(=O)[C@@H]5[C@@]5(COC(=O)C5)[C@]4(C)CC[C@@]3(C1)O2	56%	inhibition (Homo sapiens): Active; IC50 [2]: 98 µM; Activity [3]: Non-Toxic
CC1=CC(=O)[C@@H]2[C@@H](C1)[C@]13CO[C@@]4([C@@H]1O)N1C[C@H]5C[C@H](C)C[C@@]1(O5)[C@@H](O)C[C@@]4(C)[C@]1(COC(=O)C1)[C@H]3C(=O)[C@@H]2C	100%	–
CC1=CC(=O)[C@@H]2[C@@H](C1)[C@]13CO[C@@]4([C@@H]1O)N1C[C@@H]5O[C@@]1(CC[C@@]4(C)[C@]1(COC(=O)C1)[C@H]3C(=O)[C@@H]2C)C[C@@H](C)[C@H]5O	98%	–
CC1=CC(=O)[C@@H]2[C@@H](C1)[C@]1(C)C=C3N4C[C@@H]5O[C@@]4(CC[C@@]3(C)[C@]3(COC(=O)C3)[C@H]1C(=O)[C@@H]2C)C[C@@H](C)[C@H]5O	85%	–
CO[C@H]1C[C@@H]2CC[C@@H](C)[C@@](O)(O2)C(=O)C(=O)N2CCCC[C@H]2C(=O)O[C@H]([C@H](C)C[C@@H]2CC[C@@H](O)[C@H](OC)C2)CC(=O)[C@H](C)/C=C(\C)[C@@H](O)[C@@H](OC)C(=O)[C@H](C)C[C@H](C)/C=C/C=C/C=C/1C [SIROLIMUS]	–	growth at 10 µg/mL [4]: 17%; IC50 [2]: 57 µM
CC1=CC(=O)[C@@H]2[C@@H](C1)[C@]1(C)C=C3N4C[C@H]5C[C@H](C)C[C@]4(CC[C@@]3(C)[C@]3(COC(=O)C3)[C@H]1C(=O)[C@@H]2C)O5	91%	–
C[C@H]1C[C@@H]2CN3C4=C[C@@]56CO[C@]7(C)CC(=O)[C@@H]([C@H]5C7)[C@@H](C)C(=O)[C@H]6[C@@]5(COC(=O)C5)[C@]4(C)CC[C@@]3(C1)O2	82%	–
CC1=CC(=O)[C@@H]2[C@@H](C1)[C@]13C=C4N5C[C@H]6C[C@H](C)C[C@@]5(O6)[C@@H](O)C[C@@]4(C)[C@]4(COC(=O)C4)[C@H]1[C@@](O)(OC3)[C@@H]2C	83%	–
C[C@H]1C[C@@H]2CN3C4=C[C@@]56CO[C@]7(C)CC(=O)[C@@H]([C@H]5C7)[C@@H](C)C(=O)[C@@H]6[C@@]5(COC(=O)C5)[C@]4(C)CC[C@@]3(C1)O2	85%	–
C[C@H]1C[C@@H]2CN3[C@](CC[C@@]4(C)[C@]5(COC(=O)C5)[C@H]5C(=O)[C@H](C)[C@@H]6C(=O)C=C(CO)C[C@H]6[C@@]56CO[C@@]34[C@@H]6O)(C1)O2	66%	–
COC(=O)CNCC1=CC(=O)[C@@H]2[C@@H](C1)[C@]13C=C4N5C[C@H]6C[C@H](C)C[C@]5(CC[C@@]4(C)[C@]4(COC(=O)C4)[C@H]1[C@@](O)(OC3)[C@@H]2C)O6	38%	inhibition (Homo sapiens): Active; IC50 [2]: 68 µM; Activity [3]: Non-Toxic
CC1=CC(=O)[C@@H]2[C@@H](C1)[C@]13C=C4N5C[C@H]6C[C@H](C)C[C@]5(CC[C@@]4(C)[C@]4(COC(=O)C4)[C@H]1[C@@](O)(OC3)[C@@H]2C)O6	88%	–
C[C@H]1C[C@@H]2CN3C4=C[C@@]56CO[C@@](O)([C@H](C)[C@@H]7C(=O)C=C(CO)C[C@H]75)[C@@H]6[C@@]5(COC(=O)C5)[C@]4(C)CC[C@@]3(C1)O2	60%	inhibition (Homo sapiens): Active; IC50 [2]: 99 µM; Activity [3]: Non-Toxic
CC1=CC(=O)[C@@H]2[C@@H]([C@@H]1O)[C@]1(C)C=C3N4C[C@H]5C[C@H](C)C[C@]4(CC[C@@]3(C)[C@]3(COC(=O)C3)[C@H]1C(=O)[C@@H]2C)O5	75%	–
CC1=CC(=O)[C@@H]2[C@@H](C1)[C@]13CO[C@@]4([C@@H]1O)N1C[C@H]5C[C@H](C)C[C@]1(CC[C@@]4(C)[C@]1(COC(=O)C1)[C@H]3C(=O)[C@@H]2C)O5	81%	–
CC1=CC(=O)[C@@H]2[C@@H](C1)[C@]13C=C4N5C[C@@H]6O[C@@]5(CC[C@@]4(C)[C@]4(COC(=O)C4)[C@H]1[C@@](O)(OC3)[C@@H]2C)C[C@@H](C)[C@H]6O	101%	–
